In paper PMC10454678, “Synthesis of hydroxy benzoin/benzil analogs and investigation of their antioxidant, antimicrobial, enzyme inhibition, and cytotoxic activities” (Turkish Journal of Chemistry, 2021):
Values after ≈ are worked out from the molar mass of the structure shown. Where two headings read alike, the source gives them in different places.

Key:
[1] = test system: Escherichia coli ATCC 25922; assay: MIC, microdilution, E. coli; format: cell-based; settings: Escherichia coli
[2] = test system: Yersinia pseudotuberculosis ATCC911; assay: microbe, parasite or virus in culture; format: cell-based; settings: Yersinia pseudotuberculosis, ATCC911, read-out: MIC Yp
[3] = test system: Pseudomonas aeruginosa ATCC27853; assay: MIC, microdilution, P. aeruginosa; format: cell-based; settings: Pseudomonas aeruginosa, ATCC27853; Gram (-); Mueller-Hinton broth, 18-24 h, 36 °C; read-out: MIC Pa
[4] = test system: Staphylococcus aureus ATCC25923; assay: MIC, microdilution, S. aureus; format: cell-based; settings: Staphylococcus aureus
[5] = test system: Enterococcus faecalis ATCC29212; assay: MIC, microdilution, E. faecalis; format: cell-based; settings: Enterococcus faecalis, ATCC29212; Gram (+); Mueller-Hinton broth, 18-24 h, 36 °C; read-out: MIC Ef
Bacillus cereus Roma709 = assay: MIC, microdilution, B. cereus; format: cell-based; settings: Bacillus cereus
[6] = test system: Mycobacterium smegmatis ATCC607; assay: MIC, microdilution, M. smegmatis; format: cell-based; settings: Tub., BHI broth, 36 °C; for MIC: Mycolicibacterium smegmatis, ATCC607, 72 h, read-out: MIC Ms; for MIC Ms: 72 h
[7] = test system: Candida albicans ATCC60193; assay: MIC, microdilution, C. albicans; format: cell-based; settings: Candida albicans, ATCC60193; fungus; YEPD broth, 48 h, 36 °C; read-out: MIC Ca
acetylcholinesterase = acetylcholinesterase (Homo sapiens, UniProt P22303); assay: biochemical; settings: Tris-HCl pH 8.0, 25 °C, 405 nm; read-out: AChE IC50 (converted)
butyrylcholinesterase = butyrylcholinesterase (Homo sapiens, UniProt P06276); assay: biochemical; settings: Tris-HCl pH 8.0, 25 °C, 405 nm; read-out: BChE IC50 (converted)
α-glucosidase = assay: α-Glucosidase inhibition; format: biochemical; settings: PNPG, pH 6.8, 37 °C, 400 nm
Procedure: It was incubated at 37 °C for 15 min. Similarly, an enzyme-free blank was prepared. The reaction was stopped when sodium carbonate (50 μL, 0.2 M) was added.

[8] = test system: human retinal normal cell line (RPE); assay: MTT cell proliferation, RPE; settings: for GI50 / IC50: Homo sapiens, 24 h; for GI50: read-out: GI50 RPE normal cell line; for IC50: read-out: IC50 RPE normal cell line
[9] = test system: human cervical cancer cell line (HeLa); assay: MTT cell proliferation, HeLa; settings: for GI50 / IC50: Homo sapiens, HeLa, 24 h; for GI50: read-out: GI50 HeLa cell line; for IC50: read-out: IC50 HeLa cell line
[10] = DPPH radical scavenging activity; settings: 0.1 mM DPPH, 50 min dark, 517 nm
[11] = Copper ions reducing activity (CUPRAC); settings: Trolox equivalents; 30 min dark, room temperature, 450 nm
[12] = Ferric reducing antioxidant power (FRAP) assay; settings: Trolox equivalents; compounds 2 mg/mL, 30 °C 30 min, 595 nm
[13] = test system: Streptococcus mutans RSKK07038; assay: MIC, microdilution, S. mutans; format: cell-based; settings: Streptococcus mutans, RSKK07038; Gram (+); BHI broth, 72 h, 36 °C; read-out: MIC Sm
[14] = test system: Paenibacillus larvae DSM7030; assay: MIC, microdilution, P. larvae; format: cell-based; settings: Gram (+) nonpathogenic spore forming
[15] = test system: Bacillus subtilis ATCC1266; assay: MIC, microdilution, B. subtilis; format: cell-based; settings: Gram (+) nonpathogenic spore forming
[16] = ATCC25922, Gram (-), Mueller-Hinton broth, 18-24 h, 36 °C, read-out: MIC Ec
[17] = ATCC25923, Gram (+), Mueller-Hinton broth, 18-24 h, 36 °C, read-out: MIC Sa
[18] = ROMA709, Gram (+), Mueller-Hinton broth, 18-24 h, 36 °C, read-out: MIC Bc

butyrylcholinesterase, sequence (P06276 29-602): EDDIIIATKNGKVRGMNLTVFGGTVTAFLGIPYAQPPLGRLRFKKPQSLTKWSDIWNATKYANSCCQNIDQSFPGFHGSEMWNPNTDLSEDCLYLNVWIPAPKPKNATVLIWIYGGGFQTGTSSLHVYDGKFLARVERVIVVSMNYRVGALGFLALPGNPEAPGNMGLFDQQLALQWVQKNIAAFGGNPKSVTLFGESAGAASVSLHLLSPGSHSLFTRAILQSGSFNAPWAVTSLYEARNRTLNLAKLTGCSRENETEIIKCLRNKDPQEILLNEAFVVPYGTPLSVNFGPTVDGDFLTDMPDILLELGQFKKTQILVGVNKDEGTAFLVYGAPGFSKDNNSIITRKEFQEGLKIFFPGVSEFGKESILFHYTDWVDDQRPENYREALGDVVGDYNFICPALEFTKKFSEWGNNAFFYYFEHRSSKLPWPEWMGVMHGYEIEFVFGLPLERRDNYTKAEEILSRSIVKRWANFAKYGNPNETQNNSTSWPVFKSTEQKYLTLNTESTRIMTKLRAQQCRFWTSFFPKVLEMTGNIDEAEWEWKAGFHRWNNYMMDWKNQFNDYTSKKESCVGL
acetylcholinesterase, sequence (P22303 32-614, species assumed): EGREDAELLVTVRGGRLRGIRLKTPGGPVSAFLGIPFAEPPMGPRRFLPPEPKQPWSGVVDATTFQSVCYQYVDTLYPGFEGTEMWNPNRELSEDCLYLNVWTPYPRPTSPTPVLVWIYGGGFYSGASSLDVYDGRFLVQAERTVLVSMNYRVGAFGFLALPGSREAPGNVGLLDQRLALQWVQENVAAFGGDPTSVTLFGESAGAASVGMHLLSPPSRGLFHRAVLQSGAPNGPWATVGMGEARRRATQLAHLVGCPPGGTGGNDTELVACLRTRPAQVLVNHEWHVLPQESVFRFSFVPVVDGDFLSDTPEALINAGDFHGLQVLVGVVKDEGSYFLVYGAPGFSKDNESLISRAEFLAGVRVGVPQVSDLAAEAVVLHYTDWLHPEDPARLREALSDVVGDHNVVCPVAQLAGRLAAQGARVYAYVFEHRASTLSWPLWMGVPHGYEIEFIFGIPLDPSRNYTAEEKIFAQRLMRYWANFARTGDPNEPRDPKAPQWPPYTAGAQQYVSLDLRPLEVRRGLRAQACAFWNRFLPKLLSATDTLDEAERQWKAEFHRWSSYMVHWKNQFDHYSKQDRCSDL

| Structure (SMILES) | MIC [1, 16] [µg/mL] | MIC [2] [µg/mL] | MIC [3] [µg/mL] | MIC [4, 17] [µg/mL] | MIC (Bacillus cereus Roma709; [18]) [µg/mL] | MIC [6] [µg/mL] | MIC Ms [6] [µg/mL] | MIC [7] [µg/mL] | IC50 (acetylcholinesterase) [µM] | IC50 (butyrylcholinesterase) [µM] | α-Glucosidase IC50 (α-glucosidase) [µg/mL] | GI50 [8] [µg/mL] | IC50 [8] [µg/mL] | GI50 [9] [µg/mL] | IC50 [9] [µg/mL] | DPPH radical scavenging capacity (SC50) [10] [mg/mL] | CUPRAC, copper reducing antioxidant power [11] [μg/mL trolox/gram DW] | FRAP, the iron reducing antioxidant power [12] [μg/mL trolox/gram DW] | MIC [13] [µg/mL] | also measured |
| --- | --- | --- | --- | --- | --- | --- | --- | --- | --- | --- | --- | --- | --- | --- | --- | --- | --- | --- | --- | --- |
| O=C(C(=O)c1cccc(O)c1)c1ccc(O)cc1 [Compound 12, 1-(4-Hydroxyphenyl)-2-(3-hydroxyphenyl)ethane-1,2-dione] | 75 (≈ 310 µM) | 38 (≈ 157 µM) | 75 (≈ 310 µM) | 38 (≈ 157 µM) | 75 (≈ 310 µM) | 9 to 18 (≈ 37.2 to 74.3 µM) | 18 (≈ 74.3 µM) | 18 (≈ 74.3 µM) | 2070 | 1910 | 54.69 | 1.92 (≈ 7.93 µM) | 105 (≈ 434 µM) | 2.04 (≈ 8.42 µM) | 85.2 (≈ 352 µM) | 12.87 ± 0.9 | 155.00 ± 1.0 | 1555 ± 34.1 |  | MIC [5]: 18 µg/mL (≈ 74.3 µM) |
| N.N.[Cl][Pt][Cl] [Cisplatin, reference compound] |  |  |  |  |  |  |  |  |  |  |  |  |  |  |  |  |  |  |  | GI50 RPE normal cell line ([8]; MTT, 24 h incubation): 1.56 µg/mL; IC50 RPE normal cell line ([8]; MTT, 24 h incubation): 58.77 µg/mL; GI50 HeLa cell line ([9]; MTT, 24 h incubation): 1.13 µg/mL; IC50 HeLa cell line ([9]; MTT, 24 h incubation): 42.76 µg/mL |
| O=C(c1cccc(O)c1)C(O)c1cccc(O)c1 (centres unmarked) [Compound 4, 1,2-Bis(3-hydroxyphenyl)-2-hydroxyethanone] | 320 (≈ 1310 µM) | 640 (≈ 2620 µM) | 320 (≈ 1310 µM) | 640 (≈ 2620 µM) | 160 (≈ 655 µM) | 160 (≈ 655 µM) |  | 1280 (≈ 5240 µM) | 454 | 462 | >1000 | 1.15 (≈ 4.71 µM) | 30.3 (≈ 124 µM) | 1.12 (≈ 4.59 µM) | 42.7 (≈ 175 µM) | 8.16 ± 0.3 | 398.33 ± 22.1 | 1534 ± 75.0 |  |  |
| O=C(c1ccc(O)cc1)C(O)c1ccccc1 (centres unmarked) [Compound 2, 2-Hydroxy-1-(4-hydroxyphenyl)-2-phenylethanone] |  | 1030 (≈ 4520 µM) | 2060 (≈ 9050 µM) |  |  | 129 (≈ 565 µM) |  | 516 (≈ 2260 µM) | 1070 | 323 | 547.97 |  |  |  |  | 13.78 ± 1.3 | 140.00 ± 11.5 | 1881 ± 75.5 | 1030 (≈ 4520 µM) | MIC ([1]; ATCC25922, read-out: MIC Ec): 1030 µg/mL (≈ 4520 µM); MIC ([4]; ATCC25923, read-out: MIC Sa): 1030 µg/mL (≈ 4520 µM); MIC (Bacillus cereus Roma709; ROMA709, read-out: MIC Bc): 1030 µg/mL (≈ 4520 µM) |
| O=C(C(=O)c1ccc(OC2O[C@H](CO)[C@@H](O)[C@H](O)[C@H]2O)cc1)c1ccccc1 (stereo partly drawn) [Compound 22, 1-(4-O-β -D-Glucopyranosylphenyl)-2-phenylethane-1,2-dione] |  |  |  |  |  |  |  |  | 342 | 1360 | 212.24 |  |  |  |  | 47.54 ± 1.05 | 248.97 ± 34.06 | 1845.42 ± 41.36 |  | MIC [14]: 12 to 27 µg/mL (≈ 30.9 to 69.5 µM); MIC [15]: 12 to 27 µg/mL (≈ 30.9 to 69.5 µM) |
| O=C(C(=O)c1cccc(O)c1)c1cccc(O)c1 [Compound 11, 1,2-Bis(3-hydroxyphenyl)ethane-1,2-dione] | 36 (≈ 149 µM) | 145 (≈ 599 µM) | 18 (≈ 74.3 µM) | 9 (≈ 37.2 µM) | 18 (≈ 74.3 µM) | 9 to 18 (≈ 37.2 to 74.3 µM) | 9 (≈ 37.2 µM) | 36 (≈ 149 µM) | 257 | 1400 | 66.700 |  |  |  |  | 10.03 ± 0.8 | 175.00 ± 3.5 | 1340 ± 37.9 | 18 (≈ 74.3 µM) |  |
